In general, IC50 refers to the concentration that gives 50% inhibition.

Consider 9 compounds from patent publication US20160122340A1, “HISTONE DEACETYLASE INHIBITORS BASED ON DERIVATIVES OF TRICYCLIC POLYHYDROACRIDINE AND ANALOGS POSSESSING FUSED SATURATED FIVE-AND-SEVEN-MEMBERED RINGS” (QUIMATRYX, S.L., priority 2013, published 2016).

Common to all, as to assay type: biochemical
The target of one test is T1, Human HDAC5 (Homo sapiens, UniProt Q9UQL6).
T1 construct: Full length with Nterminal GST tag, MW=150 kDa; GST (N); purchased BioMol, Hamburg, Germany; host or cells: baculovirus / Sf9 cells
T1 sequence (Q9UQL6 1-1123 isoform Q9UQL6-3): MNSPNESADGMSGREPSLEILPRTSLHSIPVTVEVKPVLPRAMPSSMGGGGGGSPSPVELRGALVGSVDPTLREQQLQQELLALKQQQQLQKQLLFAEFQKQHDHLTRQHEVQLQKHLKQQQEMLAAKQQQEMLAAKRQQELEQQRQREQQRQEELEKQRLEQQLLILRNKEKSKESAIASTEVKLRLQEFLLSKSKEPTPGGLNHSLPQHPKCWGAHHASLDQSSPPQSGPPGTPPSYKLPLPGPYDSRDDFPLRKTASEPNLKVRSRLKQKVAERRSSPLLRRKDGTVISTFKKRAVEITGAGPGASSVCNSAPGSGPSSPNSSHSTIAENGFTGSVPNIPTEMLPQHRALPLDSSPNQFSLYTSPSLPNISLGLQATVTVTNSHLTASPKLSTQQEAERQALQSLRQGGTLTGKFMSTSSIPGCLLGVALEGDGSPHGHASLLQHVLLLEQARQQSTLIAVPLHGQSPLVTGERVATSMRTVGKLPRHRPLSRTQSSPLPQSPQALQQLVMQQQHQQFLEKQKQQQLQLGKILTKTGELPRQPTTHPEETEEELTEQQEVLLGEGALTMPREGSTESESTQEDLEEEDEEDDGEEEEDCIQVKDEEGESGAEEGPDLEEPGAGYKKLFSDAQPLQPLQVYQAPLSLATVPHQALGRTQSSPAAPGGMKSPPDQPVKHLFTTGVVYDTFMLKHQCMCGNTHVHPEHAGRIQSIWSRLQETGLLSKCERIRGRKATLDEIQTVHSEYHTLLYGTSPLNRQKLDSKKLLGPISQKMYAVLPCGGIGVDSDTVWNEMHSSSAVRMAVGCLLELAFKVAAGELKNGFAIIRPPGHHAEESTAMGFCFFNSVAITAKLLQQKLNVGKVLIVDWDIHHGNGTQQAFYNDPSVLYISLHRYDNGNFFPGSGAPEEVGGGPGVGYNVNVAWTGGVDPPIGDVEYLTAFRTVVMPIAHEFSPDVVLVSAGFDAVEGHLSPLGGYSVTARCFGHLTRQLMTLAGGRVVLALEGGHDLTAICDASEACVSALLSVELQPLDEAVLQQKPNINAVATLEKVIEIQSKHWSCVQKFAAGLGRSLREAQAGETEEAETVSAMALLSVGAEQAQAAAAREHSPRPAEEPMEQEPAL
Description: In vitro HDAC5 inhibition, fluorogenic substrate. Particulars: read-out: IC50 (μM) HDAC-5. As to the method:
(§1) In Vitro Inhibitory Activity of Histone Deacetylase: Human Isoforms HDAC1, 2, 3, 4, 5, 6, 7, 8, 9, 10 and 11 and HeLa Cell Line Nuclear Extract (IC50 Data)
(§2) All HDAC assays were performed using acetylated AMC-labeled peptide substrate: • Substrate for isoforms HDAC1, 2, 3, 6, 10, 11 and HeLa nuclear extract assays: Acetylated fluorogenic peptide from p53 residues 379-382 (RHKKAc). • Substrate for isoforms HDAC 4, 5, 7, 9: Fluorogenic Boc-L-Lys(ε-trifluoroacetyl)-AMC. • Substrate for HDAC8 assays: Acetylated fluorogenic peptide from p53 residues 379-382 (RHKAcKAc).
(§3) 50 μM of substrate peptide (see ‘substrate peptides’ section above) and an optimal concentration of the corresponding enzyme (see ‘enzymes’ section above) in the assay buffer and 1% final concentration of DMSO were incubated in the presence of gradient concentrations of inhibitors (10-dose IC50 mode with 3-fold serial dilution) at 30° C. for 2 h. The reactions were carried out in a 96-well microplate for fluorometry in a 50 μl reaction volume. After the deacetylation reaction, Fluor-de-Lys-Developer (BioMol Cat. # KI-105) was added to each well to digest the deacetylated substrate, thus producing the fluorescent signal. The reaction was allowed to develop for 45 minutes at 30° C. with 5% CO2; then the fluorescent signal was measured with an excitation wavelength at 360 nm and an emission wavelength at 460 nm in a microplate-reading fluorometer (GeminiXS; Molecular Devices, Sunnyvale, Calif.). A curve of Deacetylated Standard (Biomol, Cat. # KI-142; made from 100 μM with 1:2 dilution and 10-doses, 6 μl) allowed the conversion of fluorescent signal into micromoles of deacetylated product. All experiments were performed in triplicate. IC50 was calculated by fitting the experimental data to a dose-response curve. DMSO was used as negative control; Trichostatin A (Biomol Cat. # GR-309) was used as positive control inhibitor.

The target in a further test is T2, Human HDAC6 (Homo sapiens, UniProt Q9UBN7).
T2 construct: Full length with N-terminal GST tag, MW=159 kDa; GST (N); purchased BioMol SE-508; host or cells: baculovirus / Sf9 cells
T2 sequence (Q9UBN7 1-1215): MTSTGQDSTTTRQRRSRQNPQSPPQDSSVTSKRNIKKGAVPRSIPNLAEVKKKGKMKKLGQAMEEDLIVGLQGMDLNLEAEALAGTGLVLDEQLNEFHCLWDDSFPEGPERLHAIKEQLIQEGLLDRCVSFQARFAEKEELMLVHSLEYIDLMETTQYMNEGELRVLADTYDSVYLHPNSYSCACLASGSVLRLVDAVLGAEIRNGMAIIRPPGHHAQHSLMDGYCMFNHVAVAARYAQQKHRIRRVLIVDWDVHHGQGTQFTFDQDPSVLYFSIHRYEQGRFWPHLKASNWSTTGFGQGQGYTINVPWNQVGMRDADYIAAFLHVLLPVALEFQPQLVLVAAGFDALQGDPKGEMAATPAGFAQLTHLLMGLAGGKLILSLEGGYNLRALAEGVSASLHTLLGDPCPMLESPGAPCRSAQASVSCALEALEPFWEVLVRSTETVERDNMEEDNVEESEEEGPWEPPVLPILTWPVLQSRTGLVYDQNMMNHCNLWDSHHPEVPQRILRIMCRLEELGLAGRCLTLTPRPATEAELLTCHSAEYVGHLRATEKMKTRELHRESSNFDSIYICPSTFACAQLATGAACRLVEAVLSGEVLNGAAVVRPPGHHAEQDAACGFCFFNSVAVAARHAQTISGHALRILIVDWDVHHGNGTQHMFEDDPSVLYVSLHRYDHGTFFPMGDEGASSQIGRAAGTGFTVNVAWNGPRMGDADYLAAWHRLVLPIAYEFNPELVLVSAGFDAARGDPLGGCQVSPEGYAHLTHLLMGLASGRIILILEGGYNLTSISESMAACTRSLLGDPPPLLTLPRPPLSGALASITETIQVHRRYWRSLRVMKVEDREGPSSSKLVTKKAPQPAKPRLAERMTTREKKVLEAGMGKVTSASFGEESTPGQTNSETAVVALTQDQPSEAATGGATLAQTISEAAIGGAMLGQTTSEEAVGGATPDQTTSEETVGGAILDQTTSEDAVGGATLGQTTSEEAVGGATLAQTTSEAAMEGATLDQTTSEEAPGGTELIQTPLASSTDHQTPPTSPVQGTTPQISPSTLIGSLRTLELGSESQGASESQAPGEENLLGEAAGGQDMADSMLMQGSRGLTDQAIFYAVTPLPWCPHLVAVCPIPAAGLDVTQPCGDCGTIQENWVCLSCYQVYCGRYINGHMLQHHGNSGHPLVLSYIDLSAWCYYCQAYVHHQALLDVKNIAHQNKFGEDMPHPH
Description: In vitro HDAC6 inhibition, fluorogenic peptide substrate. Particulars: read-out: IC50 (μM) HDAC-6. As to the method:
as §1, §2, §3

The target in the next test is T3, Human HDAC9 (Homo sapiens, UniProt Q9UKV0).
T3 construct: Amino acids 604-1066 with C-terminal His tag, MW=50.7 kDa; His (C); purchased BioMol, Hamburg, Germany; host or cells: baculovirus expression system
T3 sequence (Q9UKV0 604-1066 isoform Q9UKV0-5): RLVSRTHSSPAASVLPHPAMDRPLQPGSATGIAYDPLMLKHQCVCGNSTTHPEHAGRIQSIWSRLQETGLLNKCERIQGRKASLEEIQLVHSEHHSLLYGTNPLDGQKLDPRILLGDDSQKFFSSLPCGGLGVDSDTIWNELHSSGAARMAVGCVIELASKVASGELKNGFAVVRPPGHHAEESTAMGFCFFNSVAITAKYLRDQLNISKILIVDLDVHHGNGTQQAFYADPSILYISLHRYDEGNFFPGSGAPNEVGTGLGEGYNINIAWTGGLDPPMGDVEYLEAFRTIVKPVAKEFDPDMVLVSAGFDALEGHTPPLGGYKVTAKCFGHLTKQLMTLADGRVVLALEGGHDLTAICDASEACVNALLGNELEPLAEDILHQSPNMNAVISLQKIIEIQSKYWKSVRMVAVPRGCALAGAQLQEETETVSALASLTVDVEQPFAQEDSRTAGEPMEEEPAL
As to the kind of experiment: In vitro HDAC9 inhibition, fluorogenic substrate. The note with it: read-out: IC50 (μM) HDAC-9. As to the method: as §1, §2, §3

SMILES strings stand for the structures. Where only a bound is given, the exact number is not on record here.

As to `O=C(CCCCCCNc1c2c(nc3ccccc13)CCCC2)NO` [Example 2, N-hydroxy-7-[(1,2,3,4-tetrahydroacridin-9-yl)amino]heptanamide], the IC50 at Human HDAC5 was determined as 0.44 µM; at Human HDAC6 it was 0.01 µM; at Human HDAC9, 1.57 µM.
For `O=C(CCCCCCNc1c2c(nc3cnccc13)CCCC2)NO` [Example 8, N-hydroxy-7-[(6,7,8,9-tetrahydrobenzo[b][1,7]naphthyridin-5-yl)amino]heptanamide] the same measures were more than 5 µM, 0.033 µM and more than 5 µM.
Regarding `O=C(CCCCCCNc1c2c(nc3ncccc13)CCCC2)NO` [Example 7, N-hydroxy-7-[(6,7,8,9-tetrahydrobenzo[b][1,8]naphthyridin-5-yl)amino]heptanamide], the results for the IC50 on Human HDAC5, at Human HDAC6 and at Human HDAC9 were more than 5 µM, 0.038 µM and more than 5 µM, respectively.
For the compound `O=C(CCCCCCNC(=O)c1c2c(nc3ccccc13)CCCC2)NO` [Example 11, N-[7-(hydroxyamino)-7-oxoheptyl]-1,2,3,4-tetrahydroacridine-9-carboxamide], the half-maximal inhibitory concentration (IC50) at Human HDAC5 is 4.24 µM; on Human HDAC6, 0.19 µM; on Human HDAC9 it was 3.17 µM.
With `O=C(CCCCCNc1c2c(nc3ccccc13)CCCC2)NO` [Example 1, N-hydroxy-6-[(1,2,3,4-tetrahydroacridin-9-yl)amino]hexanamide], the values for the IC50 at Human HDAC5, on Human HDAC6 and at Human HDAC9 were 2.14 µM, 0.036 µM and 2.47 µM, respectively.
For `O=C(CCCCCCNc1c2c(nc3ccccc13)CCCCC2)NO` [Example 4, N-hydroxy-7-[(7,8,9,10-tetrahydro-6H-cyclohepta[b]quinolin-11-yl)amino]heptanamide] the same measures were more than 5 µM, 0.015 µM and more than 5 µM.
For `COc1cccc2c(NCCCCCCC(=O)NO)c3c(nc12)CCCC3` [Example 5, N-hydroxy-7-[(5-methoxy-1,2,3,4-tetrahydroacridin-9-yl)amino]heptanamide] the same measures were more than 5 µM, 0.015 µM and more than 5 µM.
On to `O=C(CCCCCNC(=O)c1c2c(nc3ccccc13)CCCC2)NO` [Example 10, N-[6-(hydroxyamino)-6-oxohexyl]-1,2,3,4-tetrahydroacridine-9-carboxamide], for which the IC50 at Human HDAC5 is more than 5 µM; at Human HDAC6 it was 0.33 µM.
Turning to `O=C(CCCCCCNc1c2c(nc3ccccc13)CCC2)NO` [Example 3, 7-[(2,3-dihydro-1H-cyclopenta[b]quinolin-9-yl)amino]-N-hydroxyheptanamide], the IC50 on Human HDAC5 and at Human HDAC9 was more than 5 µM each time.
